From ChEMBL document CHEMBL5724806, “Unraveling interindividual differences and functional consequences of gut microbial metabolism of immunosuppressants” (2024)

Columns and labels:
Type in all cases: ADME
[1] = (§1) The drug is tested on Actinomyces naeslundi strain: DSM43013 for biotransformation under anaerobic condition. The drug concentrations were measured over 6 timepoints collected between 0 and 12 hours of incubation by liquid-chromatography-coupled mass spectrometry (LC–MS); design: dose 5 uM, timepoint 0, 1.5, 3, 6, 9, 12 hours; settings: actinomyces naeslundii, 5 µM
[2] = The drug is tested on Alloscardovia omnicolens strain: DSM21503 for biotransformation under anaerobic condition. The drug concentrations were measured over 6 timepoints collected between 0 and 12 hours of incubation by liquid-chromatography-coupled mass spectrometry (LC–MS); design: dose 5 uM, timepoint 0, 1.5, 3, 6, 9, 12 hours; settings: 5 µM
[3] = The drug is tested on Bifidobacterium longum strain: DSM20088 for biotransformation under anaerobic condition. The drug concentrations were measured over 6 timepoints collected between 0 and 12 hours of incubation by liquid-chromatography-coupled mass spectrometry (LC–MS); design: dose 5 uM, timepoint 0, 1.5, 3, 6, 9, 12 hours; settings: 5 µM
[4] = The drug is tested on Collinsella aerofaciens strain: DSM3979 for biotransformation under anaerobic condition. The drug concentrations were measured over 6 timepoints collected between 0 and 12 hours of incubation by liquid-chromatography-coupled mass spectrometry (LC–MS); design: dose 5 uM, timepoint 0, 1.5, 3, 6, 9, 12 hours; settings: 5 µM
[5] = The drug is tested on Bacteroides xylanisolvens strain: HM 722 for biotransformation under anaerobic condition. The drug concentrations were measured over 6 timepoints collected between 0 and 12 hours of incubation by liquid-chromatography-coupled mass spectrometry (LC–MS); design: dose 5 uM, timepoint 0, 1.5, 3, 6, 9, 12 hours; settings: 5 µM
[6] = The drug is tested on Blautia hansenii strain: DSM20583 for biotransformation under anaerobic condition. The drug concentrations were measured over 6 timepoints collected between 0 and 12 hours of incubation by liquid-chromatography-coupled mass spectrometry (LC–MS); design: dose 5 uM, timepoint 0, 1.5, 3, 6, 9, 12 hours; settings: 5 µM
[7] = The drug is tested on Clostridium bolteae strain: DSM15670 for biotransformation under anaerobic condition. The drug concentrations were measured over 6 timepoints collected between 0 and 12 hours of incubation by liquid-chromatography-coupled mass spectrometry (LC–MS); design: dose 5 uM, timepoint 0, 1.5, 3, 6, 9, 12 hours; settings: enterocloster bolteae, 5 µM
[8] = The drug is tested on Clostridium ramosum strain: DSM1402 for biotransformation under anaerobic condition. The drug concentrations were measured over 6 timepoints collected between 0 and 12 hours of incubation by liquid-chromatography-coupled mass spectrometry (LC–MS); design: dose 5 uM, timepoint 0, 1.5, 3, 6, 9, 12 hours; settings: thomasclavelia ramosa, 5 µM
[9] = The drug is tested on Eubacterium hallii strain: DSM3353 for biotransformation under anaerobic condition. The drug concentrations were measured over 6 timepoints collected between 0 and 12 hours of incubation by liquid-chromatography-coupled mass spectrometry (LC–MS); design: dose 5 uM, timepoint 0, 1.5, 3, 6, 9, 12 hours; settings: anaerobutyricum hallii, 5 µM
[10] = The drug is tested on Gemella haemolysans strain: DSM107751 for biotransformation under anaerobic condition. The drug concentrations were measured over 6 timepoints collected between 0 and 12 hours of incubation by liquid-chromatography-coupled mass spectrometry (LC–MS); design: dose 5 uM, timepoint 0, 1.5, 3, 6, 9, 12 hours; settings: 5 µM
[11] = The drug is tested on Gemella morbillorum strain: DSM20572 for biotransformation under anaerobic condition. The drug concentrations were measured over 6 timepoints collected between 0 and 12 hours of incubation by liquid-chromatography-coupled mass spectrometry (LC–MS); design: dose 5 uM, timepoint 0, 1.5, 3, 6, 9, 12 hours; settings: 5 µM
[12] = The drug is tested on Roseburia intestinalis strain: DSM14610 for biotransformation under anaerobic condition. The drug concentrations were measured over 6 timepoints collected between 0 and 12 hours of incubation by liquid-chromatography-coupled mass spectrometry (LC–MS); design: dose 5 uM, timepoint 0, 1.5, 3, 6, 9, 12 hours; settings: 5 µM
[13] = The drug is tested on Streptococcus salivarius strain: DSM20560 for biotransformation under anaerobic condition. The drug concentrations were measured over 6 timepoints collected between 0 and 12 hours of incubation by liquid-chromatography-coupled mass spectrometry (LC–MS); design: dose 5 uM, timepoint 0, 1.5, 3, 6, 9, 12 hours; settings: 5 µM
[14] = The drug is tested on Streptococcus sanguinis strain: DSM20567 for biotransformation under anaerobic condition. The drug concentrations were measured over 6 timepoints collected between 0 and 12 hours of incubation by liquid-chromatography-coupled mass spectrometry (LC–MS); design: dose 5 uM, timepoint 0, 1.5, 3, 6, 9, 12 hours; settings: 5 µM
[15] = The drug is tested on Escherichia coli strain: DSM27469 for biotransformation under anaerobic condition. The drug concentrations were measured over 6 timepoints collected between 0 and 12 hours of incubation by liquid-chromatography-coupled mass spectrometry (LC–MS); design: dose 5 uM, timepoint 0, 1.5, 3, 6, 9, 12 hours; settings: 5 µM
[16] = The drug is tested on Akkermansia muciniphila strain: DSM22959 for biotransformation under anaerobic condition. The drug concentrations were measured over 6 timepoints collected between 0 and 12 hours of incubation by liquid-chromatography-coupled mass spectrometry (LC–MS); design: dose 5 uM, timepoint 0, 1.5, 3, 6, 9, 12 hours; settings: 5 µM
[17] = (§2) The drug is tested on Actinomyces graevenitzii strain: DSM15540 for biotransformation under microaerobic condition. The drug concentrations were measured over 6 timepoints collected between 0 and 12 hours of incubation by liquid-chromatography-coupled mass spectrometry (LC–MS); design: dose 5 uM, timepoint 0, 1.5, 3, 6, 9, 12 hours; settings: 5 µM
[18] = The drug is tested on Gemella haemolysans strain: DSM107751 for biotransformation under microaerobic condition. The drug concentrations were measured over 6 timepoints collected between 0 and 12 hours of incubation by liquid-chromatography-coupled mass spectrometry (LC–MS); design: dose 5 uM, timepoint 0, 1.5, 3, 6, 9, 12 hours; settings: 5 µM
[19] = The drug is tested on Lactobacillus paracasei strain: ATCC27092 for biotransformation under microaerobic condition. The drug concentrations were measured over 6 timepoints collected between 0 and 12 hours of incubation by liquid-chromatography-coupled mass spectrometry (LC–MS); design: dose 5 uM, timepoint 0, 1.5, 3, 6, 9, 12 hours; settings: lacticaseibacillus paracasei, 5 µM
[20] = The drug is tested on Escherichia coli strain: DSM27469 for biotransformation under microaerobic condition. The drug concentrations were measured over 6 timepoints collected between 0 and 12 hours of incubation by liquid-chromatography-coupled mass spectrometry (LC–MS); design: dose 5 uM, timepoint 0, 1.5, 3, 6, 9, 12 hours; settings: 5 µM
[21] = as §1, with “the gut metagenome community of A-05 with ENA study accession number: PRJEB31790” for “Actinomyces naeslundi strain: DSM43013”, “7” for “6”; design: dose 5 uM, timepoint 0, 0.75, 1.5, 3, 6, 9, 12 hours; settings: 5 µM
[22] = as §1, with “the gut metagenome community of A-10 with ENA study accession number: PRJEB31790” for “Actinomyces naeslundi strain: DSM43013”, “7” for “6”; design: dose 5 uM, timepoint 0, 0.75, 1.5, 3, 6, 9, 12 hours; settings: 5 µM
[23] = as §1, with “the gut metagenome community of P-01 with ENA study accession number: PRJEB31790” for “Actinomyces naeslundi strain: DSM43013”, “7” for “6”; design: dose 5 uM, timepoint 0, 0.75, 1.5, 3, 6, 9, 12 hours; settings: 5 µM
[24] = as §1, with “the gut metagenome community of P-02 with ENA study accession number: PRJEB31790” for “Actinomyces naeslundi strain: DSM43013”, “7” for “6”; design: dose 5 uM, timepoint 0, 0.75, 1.5, 3, 6, 9, 12 hours; settings: 5 µM
[25] = as §1, with “the gut metagenome community of T-04 with ENA study accession number: PRJEB31790” for “Actinomyces naeslundi strain: DSM43013”, “7” for “6”; design: dose 5 uM, timepoint 0, 0.75, 1.5, 3, 6, 9, 12 hours; settings: 5 µM
[26] = as §2, with “the gut metagenome community of A-02 with ENA study accession number: PRJEB31790” for “Actinomyces graevenitzii strain: DSM15540”, “7” for “6”; design: dose 5 uM, timepoint 0, 0.75, 1.5, 3, 6, 9, 12 hours; settings: 5 µM
[27] = as §2, with “the gut metagenome community of A-04 with ENA study accession number: PRJEB31790” for “Actinomyces graevenitzii strain: DSM15540”, “7” for “6”; design: dose 5 uM, timepoint 0, 0.75, 1.5, 3, 6, 9, 12 hours; settings: 5 µM
[28] = as §2, with “the gut metagenome community of A-08 with ENA study accession number: PRJEB31790” for “Actinomyces graevenitzii strain: DSM15540”, “7” for “6”; design: dose 5 uM, timepoint 0, 0.75, 1.5, 3, 6, 9, 12 hours; settings: 5 µM
[29] = as §2, with “the gut metagenome community of P-02 with ENA study accession number: PRJEB31790” for “Actinomyces graevenitzii strain: DSM15540”, “7” for “6”; design: dose 5 uM, timepoint 0, 0.75, 1.5, 3, 6, 9, 12 hours; settings: 5 µM
[30] = as §2, with “the gut metagenome community of P-04 with ENA study accession number: PRJEB31790” for “Actinomyces graevenitzii strain: DSM15540”, “7” for “6”; design: dose 5 uM, timepoint 0, 0.75, 1.5, 3, 6, 9, 12 hours; settings: 5 µM

Row | SMILES | Bacterial Biotransformation [1] | Bacterial Biotransformation [2] | Bacterial Biotransformation [3] | Bacterial Biotransformation [4] | Bacterial Biotransformation [5] | Bacterial Biotransformation [6] | Bacterial Biotransformation [7] | Bacterial Biotransformation [8] | Bacterial Biotransformation [9] | Bacterial Biotransformation [10] | Bacterial Biotransformation [11] | Bacterial Biotransformation [12] | Bacterial Biotransformation [13] | Bacterial Biotransformation [14] | Bacterial Biotransformation [15] | Bacterial Biotransformation [16] | Bacterial Biotransformation [17] | Bacterial Biotransformation [18] | Bacterial Biotransformation [19] | Bacterial Biotransformation [20] | other results
1 | COc1c(C)c2c(c(O)c1C/C=C(\C)CCC(=O)O)C(=O)OC2 [MYCOPHENOLIC ACID] | Compound NOT metabolized | Compound NOT metabolized | Compound NOT metabolized | Compound NOT metabolized | Compound NOT metabolized | Compound NOT metabolized | Compound NOT metabolized | Compound NOT metabolized | Compound NOT metabolized | Compound NOT metabolized | Compound NOT metabolized | Compound NOT metabolized | Compound NOT metabolized | Compound NOT metabolized | Compound NOT metabolized | Compound NOT metabolized | Compound NOT metabolized | Compound NOT metabolized | Compound NOT metabolized | Compound NOT metabolized | Bacterial Biotransformation [21]: Compound NOT metabolized; Bacterial Biotransformation [22]: Compound NOT metabolized; Bacterial Biotransformation [23]: Compound NOT metabolized; Bacterial Biotransformation [24]: Compound NOT metabolized; Bacterial Biotransformation [25]: Compound NOT metabolized; Bacterial Biotransformation [26]: Compound NOT metabolized; Bacterial Biotransformation [27]: Compound NOT metabolized; Bacterial Biotransformation [28]: Compound NOT metabolized; Bacterial Biotransformation [29]: Compound NOT metabolized; Bacterial Biotransformation [30]: Compound NOT metabolized
2 | C[C@]12C=CC(=O)C=C1CC[C@@H]1[C@@H]2[C@@H](O)C[C@@]2(C)[C@H]1CC[C@]2(O)C(=O)CO [PREDNISOLONE] | Compound NOT metabolized | Compound NOT metabolized | Compound NOT metabolized | Compound NOT metabolized | Compound NOT metabolized | Compound NOT metabolized | Compound NOT metabolized | Compound NOT metabolized | Compound NOT metabolized | Compound NOT metabolized | Compound NOT metabolized | Compound NOT metabolized | Compound NOT metabolized | Compound NOT metabolized | Compound NOT metabolized | Compound NOT metabolized | Compound NOT metabolized | Compound NOT metabolized | Compound NOT metabolized | Compound NOT metabolized | Bacterial Biotransformation [21]: Compound metabolized; Bacterial Biotransformation [22]: Compound metabolized; Bacterial Biotransformation [23]: Compound metabolized; Bacterial Biotransformation [24]: Compound metabolized; Bacterial Biotransformation [25]: Compound NOT metabolized; Bacterial Biotransformation [26]: Compound metabolized; Bacterial Biotransformation [27]: Compound metabolized; Bacterial Biotransformation [28]: Compound metabolized; Bacterial Biotransformation [29]: Compound metabolized; Bacterial Biotransformation [30]: Compound metabolized
3 | C[C@]12C=CC(=O)C=C1CC[C@@H]1[C@@H]2C(=O)C[C@@]2(C)[C@H]1CC[C@]2(O)C(=O)CO [PREDNISONE] | Compound NOT metabolized | Compound NOT metabolized | Compound NOT metabolized | Compound NOT metabolized | Compound NOT metabolized | Compound NOT metabolized | Compound NOT metabolized | Compound NOT metabolized | Compound NOT metabolized | Compound NOT metabolized | Compound NOT metabolized | Compound NOT metabolized | Compound NOT metabolized | Compound NOT metabolized | Compound NOT metabolized | Compound metabolized | Compound NOT metabolized | Compound NOT metabolized | Compound NOT metabolized | Compound NOT metabolized | Bacterial Biotransformation [21]: Compound metabolized; Bacterial Biotransformation [22]: Compound metabolized; Bacterial Biotransformation [23]: Compound metabolized; Bacterial Biotransformation [24]: Compound metabolized; Bacterial Biotransformation [25]: Compound NOT metabolized; Bacterial Biotransformation [26]: Compound metabolized; Bacterial Biotransformation [27]: Compound metabolized; Bacterial Biotransformation [28]: Compound metabolized; Bacterial Biotransformation [29]: Compound metabolized; Bacterial Biotransformation [30]: Compound metabolized
